Activity calls are given as the source filed them. No cut-off for these calls is given here.
Assays:
[1] = Half life in Sprague-Dawley rat at 10 mg/kg, po measured for 24 hrs by LC-MS/MS analysis; type: ADME, organism-based; details: in vivo
[2] = AUC(last) in Sprague-Dawley rat at 10 mg/kg, po measured after 24 hrs by LC-MS/MS analysis; type: ADME, organism-based; set-up: dose 10 mg/kg, time 24 hrs, route po; details: in vivo
[3] = Acute toxicity in ICR mouse assessed as pathological changes of liver at 1500 mg/kg, po administered as single dose measured after 7 days by H and E staining based assay; type: organism-based; details: in vivo, time 7 day
[4] = test system: Mus musculus; assay: In vivo inhibition of cathepsin C in blood of po dosed LPS-induced ALI C57BL/6 mouse model treated 1 hr prior to LPS challenge and measured after 48 hrs; type: functional, organism-based; details: dose 2-50 mg/kg, time 49.0 hrs, DDE = dose-dependent effect
[5] = Oral bioavailability in Sprague-Dawley rat at 10 mg/kg measured after 24 hrs by LC-MS/MS analysis; type: ADME, organism-based; details: in vivo
[6] = Half life in Sprague-Dawley rat at 2 mg/kg, iv measured for 24 hrs by LC-MS/MS analysis; type: ADME, organism-based; details: in vivo
[7] = test system: Mus musculus; assay: Anti-inflammatory activity against po dosed LPS-induced ALI C57BL/6 mouse model assessed as decrease in IL-6 level in lungs treated 1 hr prior to LPS challenge and measured after 48 hrs by ELISA; type: functional, organism-based; details: dose 2-50 mg/kg, time 49.0 hrs, DDE = dose-dependent effect
[8] = Cmax in Sprague-Dawley rat at 10 mg/kg, po measured after 24 hrs by LC-MS/MS analysis; type: ADME, organism-based; set-up: dose 10 mg/kg, time 24 hrs, route po; details: in vivo
[9] = Acute toxicity in ICR mouse assessed as pathological changes of lungs at 1500 mg/kg, po administered as single dose measured after 7 days by H and E staining based assay; type: organism-based; details: in vivo, time 7 day
[10] = biological target: T1, Dipeptidyl peptidase 1 (Mus musculus) (UniProt P97821); assay: Inhibition of Cathepsin C in C57BL/6 mouse Bone marrow cells assessed as reduction of NSPs stability by measuring stability of protease 3 at 1 uM treated for 12 hrs by Western blotting analysis; type: cell-based; set-up: scale not given: the % may be the effect or the level left; details: Bone marrow cell
T1 sequence (whole entry): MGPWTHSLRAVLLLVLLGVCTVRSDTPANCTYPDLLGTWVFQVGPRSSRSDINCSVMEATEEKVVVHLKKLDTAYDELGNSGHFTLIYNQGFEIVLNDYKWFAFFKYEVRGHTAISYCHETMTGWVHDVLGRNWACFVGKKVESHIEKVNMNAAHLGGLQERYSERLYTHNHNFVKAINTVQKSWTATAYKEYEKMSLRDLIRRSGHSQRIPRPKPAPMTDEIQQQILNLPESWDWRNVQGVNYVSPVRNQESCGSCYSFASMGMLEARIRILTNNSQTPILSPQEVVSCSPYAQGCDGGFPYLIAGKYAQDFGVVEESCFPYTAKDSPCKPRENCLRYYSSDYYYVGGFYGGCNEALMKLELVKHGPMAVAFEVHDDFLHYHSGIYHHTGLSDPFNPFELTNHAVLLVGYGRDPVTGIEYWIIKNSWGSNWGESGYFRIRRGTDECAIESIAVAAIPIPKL

[11] = biological target: T2, Dipeptidyl peptidase 1 (Homo sapiens, UniProt P53634); assay: Inhibition of Cathepsin C in human U-937 cells using H-Gly-Phe-AFC as substrate pretreated for 1 hr followed by substrate addition and incubated for 60 mins by microplate reader assay; type: cell-based
[12] = test system: Mus musculus; assay: In vivo inhibition of cathepsin C in po dosed LPS-induced ALI C57BL/6 mouse model assessed as downregulation of Cat G activity in blood treated 1 hr prior to LPS challenge and measured after 48 hrs; type: functional, organism-based; details: dose 2-50 mg/kg, time 49.0 hrs, DDE = dose-dependent effect
[13] = test system: Mus musculus; assay: In vivo inhibition of cathepsin C in po dosed LPS-induced ALI C57BL/6 mouse model assessed as downregulation of Cat G activity in bone marrow treated 1 hr prior to LPS challenge and measured after 48 hrs; type: functional, organism-based; details: dose 2-50 mg/kg, time 49.0 hrs, DDE = dose-dependent effect
[14] = test system: Mus musculus; assay: Anti-inflammatory activity against po dosed LPS-induced ALI C57BL/6 mouse model assessed as increase in IL-10 level in lungs treated 1 hr prior to LPS challenge and measured after 48 hrs by ELISA; type: functional, organism-based; details: dose 2-50 mg/kg, time 49.0 hrs, DDE = dose-dependent effect
[15] = test system: Mus musculus; assay: Anti-inflammatory activity against po dosed LPS-induced ALI C57BL/6 mouse model assessed as decrease in TNF-alpha level in serum treated 1 hr prior to LPS challenge and measured after 48 hrs by ELISA; type: functional, organism-based; details: dose 2-50 mg/kg, time 49.0 hrs, DDE = dose-dependent effect
[16] = biological target: T1, Dipeptidyl peptidase 1 (Mus musculus); assay: Inhibition of Cathepsin C in C57BL/6 mouse Bone marrow cells assessed as reduction of NSPs stability by measuring stability of neutrophil elastase at 1 uM treated for 6 hrs by Western blotting analysis; type: cell-based; set-up: scale not given: the % may be the effect or the level left; details: Bone marrow cell
[17] = AUC(last) in Sprague-Dawley rat at 2 mg/kg, iv measured after 24 hrs by LC-MS/MS analysis; type: ADME, organism-based; set-up: dose 2 mg/kg, time 24 hrs, route iv; details: in vivo
[18] = test system: Mus musculus; assay: Anti-inflammatory activity against LPS-induced ALI C57BL/6 mouse model assessed as increase in animal survival rate at 2 to 50 mg/kg, po treated 1 hr prior to LPS challenge and measured after 48 hrs; type: functional, organism-based; details: dose 2-50 mg/kg, time 49.0 hrs
[19] = MRT in Sprague-Dawley rat at 2 mg/kg, iv measured after 24 hrs by LC-MS/MS analysis; type: ADME, organism-based; details: in vivo
[20] = test system: Mus musculus; assay: Anti-inflammatory activity against po dosed LPS-induced ALI C57BL/6 mouse model assessed as decrease in TNF-alpha level in lungs treated 1 hr prior to LPS challenge and measured after 48 hrs by ELISA; type: functional, organism-based; details: dose 2-50 mg/kg, time 49.0 hrs, DDE = dose-dependent effect
[21] = AUC(0 to infinity) in Sprague-Dawley rat at 2 mg/kg, iv by LC-MS/MS analysis; type: ADME, organism-based; set-up: time infinity, dose 2 mg/kg, route iv; details: in vivo
[22] = biological target: T1, Dipeptidyl peptidase 1 (Mus musculus); assay: Inhibition of Cathepsin C in C57BL/6 mouse Bone marrow cells assessed as reduction of NSPs stability by measuring stability of protease 3 at 1 uM treated for 48 hrs by Western blotting analysis; type: cell-based; set-up: scale not given: the % may be the effect or the level left; details: Bone marrow cell
[23] = biological target: T2, Dipeptidyl peptidase 1; assay: Binding affinity to Cathepsin C in human U-937 cells assessed as increase in thermal stability measured at 52 degC after 4 hrs by cellular thermal shift assay; type: cell-based; details: dose 0.5-10 µM
[24] = Tmax in Sprague-Dawley rat at 10 mg/kg, po measured after 24 hrs by LC-MS/MS analysis; type: ADME, organism-based; details: in vivo
[25] = Acute toxicity in ICR mouse assessed as pathological changes of heart at 1500 mg/kg, po administered as single dose measured after 7 days by H and E staining based assay; type: organism-based; details: in vivo, time 7 day
[26] = test system: Mus musculus; assay: Anti-inflammatory activity against LPS-induced ALI C57BL/6 mouse model assessed as decrease in pulmonary edema by measuring decrease in lung wet/dry ratio at 2 to 50 mg/kg, po treated 1 hr prior to LPS challenge and measured after 48 hrs; type: functional, organism-based; details: dose 2-50 mg/kg, time 49.0 hrs
[27] = Acute toxicity in ICR mouse assessed as animal behavioural changes at 1500 mg/kg, po administered as single dose and measured for 7 days; type: organism-based; details: in vivo, time 7 day
[28] = test system: Mus musculus; assay: In vivo inhibition of cathepsin C in bone marrow of po dosed LPS-induced ALI C57BL/6 mouse model treated 1 hr prior to LPS challenge and measured after 48 hrs; type: functional, organism-based; details: dose 2-50 mg/kg, time 49.0 hrs, DDE = dose-dependent effect
[29] = MRT in Sprague-Dawley rat at 10 mg/kg, po measured after 24 hrs by LC-MS/MS analysis; type: ADME, organism-based; details: in vivo
[30] = Acute toxicity in ICR mouse assessed as pathological changes of spleen at 1500 mg/kg, po administered as single dose measured after 7 days by H and E staining based assay; type: organism-based; details: in vivo, time 7 day
[31] = Acute toxicity in ICR mouse assessed as body weight loss at 1500 mg/kg, po administered as single dose and measured for 7 days; type: organism-based; details: in vivo, time 7 day

T2 sequence (P53634 25-134 limits assumed): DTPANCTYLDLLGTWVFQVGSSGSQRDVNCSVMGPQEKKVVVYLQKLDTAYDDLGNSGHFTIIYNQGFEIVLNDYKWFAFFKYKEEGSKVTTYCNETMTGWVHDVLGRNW
T2 sequence (P53634 231-394 limits assumed): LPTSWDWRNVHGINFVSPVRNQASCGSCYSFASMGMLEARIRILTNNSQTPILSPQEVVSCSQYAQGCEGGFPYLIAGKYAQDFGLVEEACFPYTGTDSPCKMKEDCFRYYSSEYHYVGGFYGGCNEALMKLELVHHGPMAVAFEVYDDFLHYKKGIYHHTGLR
T2 sequence (P53634 395-463 limits assumed): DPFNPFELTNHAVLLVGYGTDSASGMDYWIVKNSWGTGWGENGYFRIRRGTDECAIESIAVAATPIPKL

SMILES: CC(=O)Nc1cccc(Nc2nc(Nc3ccc(-c4ccsc4)cn3)ncc2Cl)c1
- half-life [1]: 1.79 h
- AUC(0-t) at 24 h [2]: 511 ng·h/mL
- Activity [3]: Non-Toxic
- inhibition [4]: Dde
- F [5]: 42.07%
- half-life [6]: 2.5 h
- Activity [7]: Dde
- Cmax [8]: 177 ng/mL
- Activity [9]: Non-Toxic
- Activity [10]: 78.4%
- IC50 [11]: 0.0702 µM
- inhibition [12]: Dde
- inhibition [13]: Dde
- Activity [14]: Dde
- Activity [15]: Dde
- Activity [16]: 93.5%
- AUC(0-t) at 24 h [17]: 1440 ng·h/mL
- Activity [18]: Active
- MRT [19]: 3.38 h
- Activity [20]: Dde
- AUC [21]: 1124.78 ng·h/mL
- Activity [22]: 46.8%
- Activity [23]: Active
- Tmax [24]: 0.77 h
- Activity [25]: Non-Toxic
- Activity [26]: Active
- Activity [27]: Non-Toxic
- inhibition [28]: Dde
- MRT [29]: 2.35 h
- Activity [30]: Non-Toxic
- Activity [31]: Non-Toxic
